Measurements taken from PMC8795149, “Characterization of a novel non-steroidal glucocorticoid receptor agonist optimized for topical treatment” (Scientific Reports, 2022).
“And” between values parts separate entries of the source, which are not always exact repeats. Equal values may be shown once.

Legend:
[1] = test system: TPA-induced skin inflammation; test: TPA study in mice, CP applied on the non-inflamed ear; type: in vivo, mouse; details: CP applied topically on the non-inflamed ear, tested dose range 0.03–3 µg/ear
Description: Figure S6. Effect of topically applied CP on TPA induced ear biopsy weight in mice (upper panel). Treatment scheme can be seen in the lower panel. Ear oedema was induced by TPA on the left ear on day 1, 3, 5, 8 and 10 and CP was topically administered daily on either left or right ear on day 8 to 11. The left ear biopsy weight was measured on day 11. Significant effect was seen also when CP was administered on the right ear at the 2 highest doses, indicating contribution to the local effect, by systemic exposure

[2] = test system: FKBP5 mRNA (GR target engagement); test: Minipig skin FKBP5 gene expression after 4 weeks topical treatment; type: in vivo; details: minipigs, LEO 134310 2%, CP 0.05%, BMV 0.1%
Description: Each animal was treated for 6 h daily over 28 days with 25 µL of the following topical formulations on an application area of 2.5 cm × 2.5 cm: Vehicle (transcutol:acetone (1:9) with 10% hydroxy-propyl-cellulose); Dermovate cream (CP 0.05%), CP 0.05% in vehicle; Betnovate cream (BMV 0.1%); BMV 0.1% in vehicle; LEO 134310 2% in vehicle. One test field on each animal remained untreated.
RNA was extracted from the biopsies and qPCR was performed using customized TaqMan gene expression assays for FKBP5 and TBP (reference gene).

[3] = Stability in whole blood (dog); type: in vitro ADME; details: 0.1 µM, 37 °C
Description: (§1) Compounds were incubated in diluted fresh rat, dog, minipig or human whole blood (heparin stabilized, 50% blood and 50% phosphate buffer with 1% bovine serum albumin) for 120 min at 0.1 µM, at 37 °C and the half-lives were determined. Samples were taken at 0, 15, 30, 60 and 120 min, and reactions were terminated by addition of acetonitrile containing analytical internal standard (IS). Test compound depletion was determined using time-of-flight mass spectrometry in positive ion mode (TOF–MS; AB Sciex API5600). Elimination rate constants (k) were calculated from peak areas and the half-lives was determined (t½ = ln2/k).

[4] = test system: 8 ion channels, 40 kinases, 2 phosphatases, up to 163 G-protein coupled receptors; test: Off-target panels (Eurofins IonChannelProfiler, KinaseProfiler, GPCRProfiler); details: 10 µM
[5] = In vivo pharmacokinetics in dog, i.v.
Description: The pharmacokinetic profile of LEO 134310 was determined in rat (male Sprague Dawley) and dog (female Beagle) after intravenous (i.v.) injection at 1 mg/kg. LEO 134310 was administered in isotonic cyclodextrin solution at 0.5 mg/mL (0.1% Citrate buffer pH 4, 20% hydroxy-propyl-β-cyclodextrin in 0.2% NaCl). The i.v. dose was given as a bolus in rats and as a slow injection over 2 min in dogs. The dosing volume was 2 mL/kg. Blood was immediately diluted after sampling in an inhibitory cocktail containing acetylcholinesterase inhibitor Dichlorvos [1 mg/mL in an 8 mg/mL K2EDTA solution in phosphate buffer (PBS)] and samples were stored at − 80 °C until analysis. Samples were analyzed by LC–MS/MS using an API 5500/API 6500 QTRAP mass spectrometer. Pharmacokinetic parameters were derived from a non-compartment model in Phoenix64 (Pharsight, Certara).

[6] = Stability in whole blood (human); type: in vitro ADME; details: 0.1 µM, 37 °C
Description: Anonymized human blood samples were obtained from healthy volunteer donors upon informed written consent and in accordance with national legislation.
as §1

| Compound | Dose from which significant anti-inflammatory effect due to systemic exposure was seen [1] [µg/ear] | FKBP5 gene expression induced in skin [2] | In vitro (blood) half-life [3] | Off-target activity in ion channel, kinase, phosphatase and GPCR panels [4] | In vivo clearance relative to liver blood flow [5] [fold] | In vivo clearance ([5]; i.v. 1 mg/kg) | In vivo terminal half-life ([5]; i.v. 1 mg/kg) | In vitro (blood) half-life [6] |
| --- | --- | --- | --- | --- | --- | --- | --- | --- |
| CCC(=O)O[C@]1(C(=O)CCl)[C@@H](C)C[C@H]2[C@@H]3CCC4=CC(=O)C=C[C@]4(C)[C@@]3(F)[C@@H](O)C[C@@]21C [CP, Clobetasol Propionate] | ≥ 1 | higher levels of FKBP5 gene expression | – | – | – | – | – | – |
| C[C@H](NC(=O)[C@H]1CCCO1)[C@H](Oc1ccc(C(=O)O[C@H]2CCCN(C(=O)[C@H]3COC(=O)C3)C2)cc1)c1ccc(C2CC2)cc1 [LEO 134310] | – | – | 3.3 ± 2.1 (n = 5) min | no off-target activity was identified | 15 | 470 ± 97 (n = 3) mL/min/kg | 11 ± 1.2 (n = 3) min | 6 min and 4.4 ± 2.2 (n = 4) min |
